The assay addresses CRBN-DDB1 (CRBN_DDB1.3) (Homo sapiens, UniProt Q96SW2). Put plainly: Fluorescence polarization (FP) binding assay, CRBN_DDB1.3 construct. As to conditions: 0.05% PA, 0.1% BSA. The procedure:
Example 2: Fluorescence Polarization (FP) Assay for Screening Compound Ligand Binders of CRBN-DDB1
Measuring compound ligand binding to CRBN-DDB 1 was carried out using an established sensitive and quantitative in vitro fluorescence polarization (FP) based binding assay. (See, I. J. Enyedy et al, J. Med. Chem., 44: […] [2001]). Compounds were dispensed from serially diluted DMSO stock into black 384-well compatible fluorescence polarization plates using an Echo acoustic dispenser. Compound binding to CRBN-DDB 1 was measured by displacement of an established CRBN binding ligand conjugated to an Alexa Fluor® dye (probe). A […] mixture containing 10nM CRBN-DDB1 and 5 nM probe in 50 mM Hepes, pH 7.4, 200 mM NaCl, 1% DMSO, 0.1% BSA and 0.05% o pluronic acid-127 acid was added to wells containing compound and incubated at room temperature for 60 min. Matching control wells excluding CRBN-DDB 1 were used to correct for background fluorescence. Plates were read on an Envision plate reader with appropriate FP filter sets. The corrected S (perpendicular) and P (parallel) values were used to calculate fluorescence polarization (FP) with the following equation: FP=1000*(S−G*P)/(S+G*P).
The fractional amount of bound probe (FB) to CRBN-DDB 1 as a function of compound concentration was fitted according to Wang; FEBS Letters 360, (1995), 111-114 to obtain fits for parameter offsets and binding constant (KA) of competitor compound.
On the technique in general: In fluorescence polarisation assays a small probe gives low polarisation when free and higher when bound to something large.

The mark [1] stands for this setting: indoline binders, read-out: FP CRBN_DDB1.3 0.05% PA, 0.1% BSA ka nM.
Setting [2] is: tetrahydroquinoline binders, read-out: FP CRBN_DDB1.3 0.05% PA, 0.1% BSA ka nM.
Setting [3] is: benzomorpholine binders, read-out: FP CRBN_DDB1.3 0.05% PA, 0.1% BSA Ka nM.

SMILES strings stand for the structures. Like-named read-outs stand apart in the source and are kept apart here.

This note sets out measurements from patent US12421220B2, “Bicyclic-substituted glutarimide cereblon binders” (C4 THERAPEUTICS, INC., priority 2022, dated 2025).

Chain of CRBN-DDB1 (CRBN_DDB1.3) (Q96SW2 318-426 limits assumed): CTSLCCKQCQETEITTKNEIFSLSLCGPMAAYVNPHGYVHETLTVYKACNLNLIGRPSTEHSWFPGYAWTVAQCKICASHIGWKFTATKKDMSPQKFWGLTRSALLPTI

For the compound `CN(C(=O)OC(C)(C)C)[C@H]1CC[C@H](c2c(F)cc3c(c2F)CCN3[C@@H]2CCC(=O)NC2=O)CC1` (single isomer, unassigned) [Compound 55-5], under setting [1], the Kd was less than 100000 nM.
Still for that read-out and setting: under `CC(C)(C)OC(=O)N1CC[C@@H]2CN(c3cccc4c3CCN4[C@@H]3CCC(=O)NC3=O)CC[C@@H]21` (single isomer, unassigned) [Compound 59-9b] stands less than 1000 nM; under `CC(C)(C)OC(=O)N1CCC(c2cc3c(cc2F)N([C@@H]2CCC(=O)NC2=O)CC3)CC1` (single isomer, unassigned) [Compound 52-7], less than 100000 nM.
As for `CC(C)(C)OC(=O)N1CCC(OC2CCN(c3cccc4c3CCCN4[C@H]3CCC(=O)NC3=O)CC2)CC1` (single isomer, unassigned) [Compound 67-6], the Kd under setting [2] was less than 100000 nM.
As for `O=C1CCC(N2CCOc3c(N4CCC(O)(C(=O)O)CC4)cccc32)C(=O)N1` (centres unmarked) [Compound 27-8, 1-[4-(2,6-dioxo-3-piperidyl)-2,3-dihydro-1,4-benzoxazin-8-yl]-4-hydroxy-piperidine-4-carboxylic acid], the Kd under setting [3] was not above 100000 nM.
Still for that read-out and setting: under `O=C1CCC(N2CCOc3c([C@H]4CCCNC4)cccc32)C(=O)N1` (stereo partly drawn) [Compound 13-8, 3-[8-[(3R)-3-piperidyl]-2,3-dihydro-1,4-benzoxazin-4-yl]piperidine-2,6-dione] stands not above 100000 nM; under `CNC1CCN(c2cccc3c2O[C@@H](C)CN3C2CCC(=O)NC2=O)CC1` (stereo partly drawn) [Compound 18-13, 3-[(2S)-2-methyl-8-[4-(methylamino)-1-piperidyl]-2,3-dihydro-1,4-benzoxazin-4-yl]piperidine-2,6-dione], not above 100000 nM.
Regarding `CC(C)(C)OC(=O)N1CCC(OC2CCN(c3cccc4c3CCCN4[C@@H]3CCC(=O)NC3=O)CC2)CC1` (single isomer, unassigned) [Compound 67-7], the Kd under setting [2] was less than 1000 nM.
Same read-out and setting: under `CC(C)(C)OC(=O)N1CCN(c2cccc3c2CCCN3[C@H]2CCC(=O)NC2=O)CC1` (single isomer, unassigned) [Compound 68-3] stands less than 100000 nM.
As to `CN(C(=O)OC(C)(C)C)C1CCN(c2cccc3c2OCCN3[C@H]2CCC(=O)NC2=O)CC1` (single isomer, unassigned) [Compound 16-6], the Kd under setting [3] was not above 100000 nM.
As to `CC(C)(C)OC(=O)N1CC[C@H]2CN(c3cccc4c3CCN4[C@@H]3CCC(=O)NC3=O)CC[C@H]21` (single isomer, unassigned) [Compound 56-9a], under setting [1], the Kd is less than 100000 nM.
On the same count and under the same terms, the value for `CC(C)(C)OC(=O)CC1(O)CCN(c2cccc3c2CCN3[C@H]2CCC(=O)NC2=O)CC1` (single isomer, unassigned) [Compound 38-6] was less than 100000 nM; that for `CC(C)(C)OC(=O)C1CCN(Cc2cccc3c2CCN3[C@H]2CCC(=O)NC2=O)CC1` (single isomer, unassigned) [Compound 54-6] was less than 100000 nM; that for `CC(C)(C)OC(=O)CC1(O)CCN(c2cccc3c2CCN3[C@@H]2CCC(=O)NC2=O)CC1` (single isomer, unassigned) [Compound 38-7] was less than 1000 nM.
For `CC(C)(C)OC(=O)CN1CCC(c2cccc3c2CCCN3[C@@H]2CCC(=O)NC2=O)CC1` (single isomer, unassigned) [Compound 60-4], the Kd under setting [2] is less than 100000 nM.
As for `CN(C(=O)OC(C)(C)C)[C@H]1CC[C@H](c2c(F)cc3c(c2F)CCN3[C@H]2CCC(=O)NC2=O)CC1` (single isomer, unassigned) [Compound 55-4], the Kd under setting [1] was less than 100000 nM.
Same read-out and setting: the value for `CC(C)(C)OC(=O)CC1CCN(c2cccc3c2CCN3[C@H]2CCC(=O)NC2=O)CC1` (single isomer, unassigned) [Compound 39-5] was less than 100000 nM.
The same measure, in the same setting: under `O=C1CCC(N2CCc3c(N4CCC(CCO)CC4)cccc32)C(=O)N1` (racemic) [Compound 42-4, 3-[4-[4-(2-hydroxyethyl)-1-piperidyl]indolin-1-yl]piperidine-2,6-dione] stands less than 100000 nM.
For the compound `O=C1CCC(c2cccc3c2OCCN3C2CCC(=O)NC2=O)CC1` (centres unmarked) [Compound 5-14, 3-[8-(4-oxocyclohexyl)-2,3-dihydro-1,4-benzoxazin-4-yl]piperidine-2,6-dione], the Kd under setting [3] is not above 100000 nM.
Take `CC(C)(C)OC(=O)CC1CCN(c2cccc3c2CCN3[C@@H]2CCC(=O)NC2=O)CC1` (single isomer, unassigned) [Compound 39-6]: the Kd under setting [1] was less than 1000 nM.
On to `O=C1CCN(c2cccc3c2OCCN3C2CCC(=O)NC2=O)CC1` (centres unmarked) [Compound 6-12, 3-(8-(4-oxopiperidin-1-yl)-2,3-dihydro-4H-benzo[b][1,4]oxazin-4-yl)piperidine-2,6-dione], for which the Kd under setting [3] is not above 100000 nM.
With `CC(C)(C)OC(=O)N1CCC(c2ccc3c(c2)CCN3[C@H]2CCC(=O)NC2=O)CC1` (single isomer, unassigned) [Compound 40-6], under setting [1], the Kd was less than 100000 nM.
With `O=C(O)CN1CCC(c2cccc3c2OCC(=O)N3C2CCC(=O)NC2=O)CC1` (centres unmarked) [Compound 29-5, 2-(4-(4-(2,6-dioxopiperidin-3-yl)-3-oxo-3,4-dihydro-2H-benzo[b][1,4]oxazin-8-yl)piperidin-1-yl)acetic acid], the Kd under setting [3] was not above 100000 nM.
The same measure, in the same setting: the value for `CN(C(=O)OC(C)(C)C)C1CCN(c2cccc3c2OCCN3[C@@H]2CCC(=O)NC2=O)CC1` (single isomer, unassigned) [Compound 16-7] was not above 1000 nM.
In the case of `CC(C)(C)OC(=O)CN1CCC(c2cccc3c2CCCN3[C@H]2CCC(=O)NC2=O)CC1` (single isomer, unassigned) [Compound 60-3], under setting [2], the Kd is less than 1000 nM.
`CC(C)(C)OC(=O)N1CC[C@H]2CN(c3cccc4c3CCN4[C@H]3CCC(=O)NC3=O)CC[C@H]21` (single isomer, unassigned) [Compound 56-8a]: under setting [1], the Kd was less than 100000 nM.
Same read-out and setting: the value for `CN(C(=O)OC(C)(C)C)[C@H]1CC[C@@H](c2c(F)cc3c(c2F)CCN3[C@H]2CCC(=O)NC2=O)CC1` (single isomer, unassigned) [Compound 55-6] was less than 100000 nM.
As for `O=C1CCC(N2CCOc3c(C4CCC5(CCNCC5)CC4)cccc32)C(=O)N1` (centres unmarked) [Compound 20-7, 3-[8-(3-azaspiro[5.5]undecan-9-yl)-2,3-dihydro-1,4-benzoxazin-4-yl]piperidine-2,6-dione], under setting [3], the Kd was not above 100000 nM.
Take `O=C1CC[C@@H](N2CCCc3c(N4CCC(CCO)CC4)cccc32)C(=O)N1` (single isomer, unassigned) [Compound 66-5]: the Kd under setting [2] is less than 100000 nM.
On the same count and under the same terms, under `CN(C(=O)OC(C)(C)C)C1CCN(c2cccc3c2CCCN3[C@@H]2CCC(=O)NC2=O)CC1` (single isomer, unassigned) [Compound 61-6] stands less than 1000 nM.
For the compound `CC(C)(C)OC(=O)CN1CCC(c2cccc3c2OCCN3[C@H]2CCC(=O)NC2=O)CC1` (single isomer, unassigned) [Compound 24-3], the Kd under setting [3] was not above 100000 nM.
As to `CC(C)(C)OC(=O)N1CCC(c2ccc3c(c2)CCN3[C@@H]2CCC(=O)NC2=O)CC1` (single isomer, unassigned) [Compound 40-5], under setting [1], the Kd is less than 1000 nM.
Consider `CC(C)(C)OC(=O)CN1CCC(c2cccc3c2OCCN3[C@@H]2CCC(=O)NC2=O)CC1` (single isomer, unassigned) [Compound 24-4], for which the Kd under setting [3] is not above 100000 nM.
As for `CN(C(=O)OC(C)(C)C)[C@H]1CC[C@@H](c2c(F)cc3c(c2F)CCN3[C@@H]2CCC(=O)NC2=O)CC1` (single isomer, unassigned) [Compound 55-7], the Kd under setting [1] was less than 100000 nM.
The same measure, in the same setting: under `O=C1CC[C@H](N2CCc3c(N4CCC(CO)CC4)cccc32)C(=O)N1` (single isomer, unassigned) [Compound 53-5] stands less than 1000 nM.
